In publication PMC9230136 (Pharmaceutics, 2022):
Where two headings read alike, the source gives them in different places.

Columns and labels:
[1] = system: HeLa; experiment: Antiproliferative assay (resazurin, 72 h); assay type: cell-based, human; settings: Homo sapiens, HeLa
Experimental: (§1) Colon adenocarcinoma (HT-29) and T-cell leukemia (Jurkat) cells were grown in RPMI-1640 medium (Gibco, Milano, Italy). Promyelocytic leukemia cells (HL-60), non-small cell lung carcinoma (A549), cervix carcinoma (HeLa) and breast adenocarcinoma (MDA-MB-231) cells were grown in DMEM medium (Gibco, Milano, Italy). Both media were supplemented with 115 units/mL of penicillin G (Gibco, Milano, Italy), 115 μg/mL of streptomycin (Invitrogen, Milano, Italy) and 10% fetal bovine serum (Invitrogen, Milano, Italy). All the cell lines used were purchased from the American Type Culture Collection (ATCC, Manassas, VA, USA). Stock solutions (10 mM) of the compounds were obtained by dissolving them in DMSO.
(§2) The cells were seeded in 96-well plates at the appropriate density for each cell line. After 24 h, the cells were treated by performing serial 5-fold dilutions of the tested compounds starting from a concentration of 10 μM. All experimental conditions were tested in triplicate for statistical analysis. The plates were incubated for 72 h at 37 °C in a humidified 5% CO2 atmosphere. At the end of the incubation period, 10 μL of 100 μg/mL resazurin solution was added to each well; then, the plate was re-incubated for 3–4 h. The fluorescence of the wells in each plate was monitored using a Spark 10 M spectrophotometer (Tecan Group Ltd., Mannedorf, Switzerland) with a 535 nm excitation wavelength and a 600 nm emission wavelength.

[2] = system: Jurkat; experiment: Antiproliferative assay (resazurin, 72 h); assay type: cell-based, human; settings: Homo sapiens, Jurkat, mean ± SE, 72 h
Experimental: as §1, §2

[3] = system: MDA-MB-231; experiment: Antiproliferative assay (resazurin, 72 h); assay type: cell-based, human; settings: for IC50: Homo sapiens, MDA-MB-231
Experimental: as §1, §2

[4] = system: HT-29; experiment: Antiproliferative assay (resazurin, 72 h); assay type: cell-based, human; settings: Homo sapiens, HT-29, mean ± SE, 72 h
Experimental: as §1, §2

[5] = system: A549; experiment: Antiproliferative assay (resazurin, 72 h); assay type: cell-based, human; settings: Homo sapiens
Experimental: as §1, §2

[6] = system: A549, MDA-MB-231, HeLa, HT-29 and Jurkat cancer cell lines; experiment: Antiproliferative activity over the panel of cancer cell lines; assay type: cell-based, human; settings: for IC50: Homo sapiens
Experimental: as §1, §2

[7] = read-out: IC50 values (2-para-substituted phenyl derivatives)
[8] = four of the five cell lines, read-out: IC50 values against four of the five cell lines

IC50 ([1]; Table 1, mean ± SE) [nM] | IC50 ([2]; Table 1) [nM] | IC50 ([3]; Table 1, mean ± SE, 72 h) [nM] | IC50 ([4]; Table 1) [nM] | IC50 ([5]; A549, Table 1, mean ± SE) [nM] | melting point [°C] | IC50 ([1]; Table 2, mean ± SE) [nM] | IC50 ([2]; Table 2) [nM] | IC50 ([3]; Table 2, mean ± SE, 72 h) [nM] | IC50 ([4]; Table 2) [nM] | IC50 ([5]; A549, Table 2, mean ± SE) [nM] | SMILES | further results
– | – | – | – | – | 174 to 176 | 5880 ± 2960 | 5980 ± 1580 | 9250 ± 120 | 9110 ± 930 | 2440 ± 130 | Cc1cc(Nc2cccc(F)c2)n2nc(NCc3ccc4c(c3)OCO4)nc2n1 [Compound 8h, N^2-(Benzo[d][1,3]dioxol-5-ylmethyl)-N^7-(3-fluorophenyl)-5-methyl-[1,2,4]triazolo [1,5-a]pyrimidine-2,7-diamine] | –
– | – | – | – | – | 164 to 166 | 960 ± 460 | 1660 ± 480 | 4820 ± 1910 | 2660 ± 660 | 2170 ± 10 | Cc1cc(Nc2cccc(Cl)c2)n2nc(NCc3ccc4c(c3)OCO4)nc2n1 [Compound 8j, N^2-(Benzo[d][1,3]dioxol-5-ylmethyl)-N^7-(3-chlorophenyl)-5-methyl-[1,2,4]triazolo [1,5-a]pyrimidine-2,7-diamine] | –
– | – | – | – | – | 166 to 168 | 720 ± 340 | 950 ± 120 | 2040 ± 1030 | 1380 ± 60 | 2360 ± 340 | Cc1cc(Nc2ccc(Cl)c(Cl)c2)n2nc(NCc3ccc4c(c3)OCO4)nc2n1 [Compound 8k, N^2-(Benzo[d][1,3]dioxol-5-ylmethyl)-N^7-(3,4-dichlorophenyl)-5-methyl-[1,2,4]triazolo [1,5-a]pyrimidine-2,7-diamine] | –
– | – | – | – | – | 150 to 152 | 1280 ± 300 | 1180 ± 110 | 3990 ± 60 | 2240 ± 120 | 2320 ± 230 | Cc1cc(Nc2cccc(Br)c2)n2nc(NCc3ccc4c(c3)OCO4)nc2n1 [Compound 8m, N^2-(Benzo[d][1,3]dioxol-5-ylmethyl)-N^7-(3-bromophenyl)-5-methyl-[1,2,4]triazolo [1,5-a]pyrimidine-2,7-diamine] | –
– | – | – | – | – | 158 to 160 | 3640 ± 1010 | 1600 ± 290 | 6130 ± 1460 | 5180 ± 270 | 3270 ± 570 | Cc1cc(Nc2ccc(C(F)(F)F)cc2)n2nc(NCc3ccc4c(c3)OCO4)nc2n1 [Compound 8n, N^2-(Benzo[d][1,3]dioxol-5-ylmethyl)-N^7-(4-trifluoromethylphenyl)-5-methyl-[1,2,4]triazolo [1,5-a]pyrimidine-2,7-diamine] | –
– | – | – | – | – | 180 to 182 | 7150 ± 600 | 7600 ± 60 | 9820 ± 860 | 7130 ± 870 | 6260 ± 2020 | Cc1cc(Nc2cccc(C(F)(F)F)c2)n2nc(NCc3ccc4c(c3)OCO4)nc2n1 [Compound 8o, N^2-(Benzo[d][1,3]dioxol-5-ylmethyl)-N^7-(3-trifluoromethylphenyl)-5-methyl-[1,2,4]triazolo [1,5-a]pyrimidine-2,7-diamine] | –
– | – | – | – | – | 165 to 168 | 1600 ± 70 | 2380 ± 180 | 3090 ± 570 | 2080 ± 140 | 1780 ± 510 | C#Cc1cccc(Nc2cc(C)nc3nc(NCc4ccc5c(c4)OCO5)nn23)c1 [Compound 8p, N^2-(Benzo[d][1,3]dioxol-5-ylmethyl)-N^7-(3-ethynylphenyl)-5-methyl-[1,2,4]triazolo [1,5-a]pyrimidine-2,7-diamine] | –

Second part, the compound before the results:

SMILES | IC50 ([1]; Table 1, mean ± SE) [nM] | IC50 ([2]; Table 1) [nM] | IC50 ([3]; Table 1, mean ± SE, 72 h) [nM] | IC50 ([4]; Table 1) [nM] | IC50 ([5]; A549, Table 1, mean ± SE) [nM] | melting point [°C] | IC50 ([1]; Table 2, mean ± SE) [nM] | IC50 ([2]; Table 2) [nM] | IC50 ([3]; Table 2, mean ± SE, 72 h) [nM] | IC50 ([4]; Table 2) [nM] | IC50 ([5]; A549, Table 2, mean ± SE) [nM] | further results
COc1cc(Nc2cc(C)nc3nc(-c4ccc(F)cc4)nn23)cc(OC)c1OC [Compound 7a, 2-(4-Fluorophenyl)-5-methyl-N-(3,4,5-trimethoxyphenyl)-[1,2,4]triazolo [1,5-a]pyrimidin-7-amine] | 3760 ± 190 | 3570 ± 450 | 2250 ± 190 | > 10000 | 2710 ± 250 | 253 | – | – | – | – | – | IC50 [6, 7]: < 2000 nM
COc1cc(Nc2cc(C)nc3nc(-c4ccc(Cl)cc4)nn23)cc(OC)c1OC [Compound 7b, 2-(4-Chlorophenyl)-5-methyl-N-(3,4,5-trimethoxyphenyl)-[1,2,4]triazolo [1,5-a]pyrimidin-7-amine] | 5790 ± 420 | > 10000 | > 10000 | > 10000 | > 10000 | 260 | – | – | – | – | – | IC50 [6, 7]: < 2000 nM
COc1cc(Nc2cc(C)nc3nc(-c4ccc(C)cc4)nn23)cc(OC)c1OC [Compound 7c, 5-Methyl-2-(p-tolyl)-N-(3,4,5-trimethoxyphenyl)-[1,2,4]triazolo [1,5-a]pyrimidin-7-amine] | 2080 ± 190 | 4230 ± 1150 | 2600 ± 270 | > 10000 | > 10000 | 248 | – | – | – | – | – | IC50 [6, 7]: < 2000 nM
COc1cc(Nc2cc(C)nc3nc(Nc4ccc(Cl)cc4)nn23)cc(OC)c1OC [Compound 7f, N2-(4-Chlorophenyl)-5-methyl-N7-(3,4,5-trimethoxyphenyl)-[1,2,4]triazolo [1,5-a]pyrimidine-2,7-diamine] | 92 ± 10 | > 10000 | 470 ± 45 | 320 ± 40 | 290 ± 30 | 251 | – | – | – | – | – | IC50 [6, 8]: < 1000 nM
COc1cc(Nc2cc(C)nc3nc(NCc4ccc(F)cc4)nn23)cc(OC)c1OC [Compound 7l, N^2-(4-Fluorobenzyl)-5-methyl-N^7-(3,4,5-trimethoxyphenyl)-[1,2,4]triazolo [1,5-a]pyrimidine-2,7-diamine] | 1860 ± 130 | 4680 ± 480 | 61 ± 9 | 1140 ± 90 | 5890 ± 480 | 156 to 158 | – | – | – | – | – | fold more potent than 7e ([3]; MDA-MB-231 cells): 12 fold; fold less active than 7e ([6]; in four lines): 2-6 fold
COc1cc(Nc2cc(C)nc3nc(NCc4cccc(Cl)c4)nn23)cc(OC)c1OC [Compound 7o, N^2-(3-Chlorobenzyl)-5-methyl-N^7-(3,4,5-trimethoxyphenyl)-[1,2,4]triazolo [1,5-a]pyrimidine-2,7-diamine] | 740 ± 80 | 4720 ± 360 | 60 ± 7 | 790 ± 90 | 930 ± 110 | 136 to 138 | – | – | – | – | – | fold increase in potency vs 7n ([3]; MDA-MB-231 cells): 3 fold; IC50 [6, 8]: < 1000 nM; fold reduction in activity vs 7n ([6]; four of the five cancer cell lines): 9-24 fold
COc1ccc(CNc2nc3nc(C)cc(Nc4cc(OC)c(OC)c(OC)c4)n3n2)cc1 [Compound 7s, N^2-(4-Methoxybenzyl)-5-methyl-N^7-(3,4,5-trimethoxyphenyl)-[1,2,4]triazolo [1,5-a]pyrimidine-2,7-diamine] | 220 ± 30 | 900 ± 90 | 1270 ± 120 | 490 ± 60 | 810 ± 80 | 182 to 184 | – | – | – | – | – | IC50 [3]: 1300 nM; IC50 ([6]; MDA-MB-231, against four of the five cell lines (not MDA-MB-231), read-out: IC50 values, range): 217 to 900 nM; IC50 [6, 8]: < 1000 nM; fold reduction in antiproliferative activity vs 7p ([6]; all five lines): 2–5 fold
COc1cc(Nc2cc(C)nc3nc(NCCc4ccccc4)nn23)cc(OC)c1OC [Compound 7z, 5-Methyl-N^2-phenethyl-N^7-(3,4,5-trimethoxyphenyl)-[1,2,4]triazolo [1,5-a]pyrimidine-2,7-diamine] | 860 ± 100 | 1990 ± 240 | 940 ± 90 | 1890 ± 160 | 2010 ± 160 | 201 to 203 | – | – | – | – | – | –
Cc1cc(Nc2ccc(F)c(Cl)c2)n2nc(NCc3ccc(Cl)cc3)nc2n1 [Compound 8a, N^7-(3-Chloro-4-fluorophenyl)-N^2-(4-chlorobenzyl)-5-methyl-[1,2,4]triazolo [1,5-a]pyrimidine-2,7-diamine] | – | – | – | – | – | 186 to 188 | 190 ± 50 | 500 ± 310 | 390 ± 40 | 340 ± 20 | 320 ± 60 | –
Cc1cc(Nc2cccc(Cl)c2)n2nc(NCc3ccc(Cl)cc3)nc2n1 [Compound 8b, N^7-(3-Chlorophenyl)-N^2-(4-chlorobenzyl)-5-methyl-[1,2,4]triazolo [1,5-a]pyrimidine-2,7-diamine] | – | – | – | – | – | 158 to 160 | 810 ± 150 | 880 ± 500 | 1880 ± 80 | 1640 ± 220 | 1740 ± 130 | –
C#Cc1cccc(Nc2cc(C)nc3nc(NCc4ccc(Cl)cc4)nn23)c1 [Compound 8c, N^7-(3-Ethynylphenyl)-N^2-(4-chlorobenzyl)-5-methyl-[1,2,4]triazolo [1,5-a]pyrimidine-2,7-diamine] | – | – | – | – | – | 190 to 192 | 420 ± 50 | 500 ± 60 | 1710 ± 60 | 490 ± 60 | 610 ± 200 | –
Cc1ccc(CNc2nc3nc(C)cc(Nc4cccc(Cl)c4)n3n2)cc1 [Compound 8e, N^7-(3-Chlorophenyl)-N^2-(4-methylbenzyl)-5-methyl-[1,2,4]triazolo [1,5-a]pyrimidine-2,7-diamine] | – | – | – | – | – | 166 to 168 | 680 ± 260 | 630 ± 140 | 2760 ± 550 | 830 ± 3 | 1640 ± 370 | –
